Assay results as given in ChEMBL document CHEMBL1201862, “PubChem BioAssay data set” (2004).
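Protocol summary: plate cells (96-well), add compound at 5 concentrations, incubate 48 h, interpolate endpoints linearly. GI50 is the concentration that inhibits growth by half.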 Calls of active or inactive are those of the source. Rule as the data show it: active = GI50 up to about 1.1 µM and inactive = higher.

Key:
Assay in all cases: NCI tumour cell line growth inhibition, 48 h
U-251 = test system: U-251
786-0 = test system: 786-0
HOP-62 = test system: HOP-62
CCRF-CEM = test system: CCRF-CEM
LOX IMVI = test system: LOX IMVI
SK-MEL-2 = test system: SK-MEL-2
TK-10 = test system: TK-10
SR = test system: SR
UACC-62 = test system: UACC-62
M14 = test system: M14
MDA-MB-231 = test system: MDA-MB-231
NCI-H522 = test system: NCI-H522
UACC-257 = test system: UACC-257
DU-145 = test system: DU-145
HL-60 = test system: HL-60
NCI/ADR-RES = test system: NCI/ADR-RES
SK-OV-3 = test system: SK-OV-3
ACHN = test system: ACHN
COLO 205 = test system: COLO 205
UO-31 = test system: UO-31

Compound	GI50 (U-251)	GI50 (786-0)	GI50 (HOP-62)	GI50 (CCRF-CEM)	GI50 (LOX IMVI)	GI50 (SK-MEL-2)	GI50 (TK-10)	GI50 (SR)	GI50 (UACC-62)	GI50 (M14)	GI50 (MDA-MB-231)	GI50 (NCI-H522)	GI50 (UACC-257)	GI50 (DU-145)	GI50 (HL-60)	GI50 (NCI/ADR-RES)	GI50 (SK-OV-3)	GI50 (ACHN)	GI50 (COLO 205)	GI50 (UO-31)
Cc1ccc(OCC2OC(n3cnc4c(Cl)nc(Cl)nc43)CC2Oc2ccc(C)cc2)cc1 (centres undefined)	2.13 µM (inactive)	14.5 µM (inactive)	2.56 µM (inactive)	4.3 µM (inactive)	1.79 µM (inactive)	2.24 µM (inactive)	11.2 µM (inactive)	2.49 µM (inactive)	1.98 µM (inactive)	1.85 µM (inactive)	2.08 µM (inactive)	1.74 µM (inactive)	2.68 µM (inactive)	1.91 µM (inactive)	2.36 µM (inactive)	1.97 µM (inactive)	19.2 µM (inactive)	1.37 µM (inactive)	1.96 µM (inactive)	–
COI1NC(=O)c2ccccc21	> 100 µM (inactive)	> 100 µM (inactive)	> 100 µM (inactive)	60.4 µM (inactive)	> 100 µM (inactive)	> 100 µM (inactive)	> 100 µM (inactive)	> 100 µM (inactive)	> 100 µM (inactive)	> 100 µM (inactive)	> 100 µM (inactive)	74 µM (inactive)	–	> 100 µM (inactive)	> 100 µM (inactive)	> 100 µM (inactive)	> 100 µM (inactive)	> 100 µM (inactive)	> 100 µM (inactive)	> 100 µM (inactive)
COC(=O)C1=CC(=O)OC1(OO)c1ccc(Br)cc1 (centres undefined)	> 100 µM (inactive)	65.2 µM (inactive)	–	27 µM (inactive)	48.5 µM (inactive)	> 100 µM (inactive)	> 100 µM (inactive)	55.8 µM (inactive)	> 100 µM (inactive)	> 100 µM (inactive)	> 100 µM (inactive)	> 100 µM (inactive)	> 100 µM (inactive)	> 100 µM (inactive)	40.3 µM (inactive)	> 100 µM (inactive)	> 100 µM (inactive)	> 100 µM (inactive)	44.3 µM (inactive)	> 100 µM (inactive)
CO[P@]1(=O)O[C@@H](c2ccccc2)[C@H](O)[C@@]1(O)c1ccccc1	> 100 µM (inactive)	> 100 µM (inactive)	–	> 100 µM (inactive)	> 100 µM (inactive)	> 100 µM (inactive)	> 100 µM (inactive)	> 100 µM (inactive)	> 100 µM (inactive)	> 100 µM (inactive)	> 100 µM (inactive)	> 100 µM (inactive)	> 100 µM (inactive)	> 100 µM (inactive)	> 100 µM (inactive)	> 100 µM (inactive)	> 100 µM (inactive)	> 100 µM (inactive)	> 100 µM (inactive)	> 100 µM (inactive)
CCCCCn1c(=O)c2c(=O)[nH][nH]c2c2ccccc21	> 100 µM (inactive)	> 100 µM (inactive)	> 100 µM (inactive)	> 100 µM (inactive)	> 100 µM (inactive)	> 100 µM (inactive)	> 100 µM (inactive)	> 100 µM (inactive)	> 100 µM (inactive)	–	> 100 µM (inactive)	> 100 µM (inactive)	> 100 µM (inactive)	> 100 µM (inactive)	> 100 µM (inactive)	> 100 µM (inactive)	> 100 µM (inactive)	> 100 µM (inactive)	> 100 µM (inactive)	> 100 µM (inactive)
Cc1ccc(/N=C2N=C(Cl)/C(=C\c3ccccc3)N\2)cc1	> 100 µM (inactive)	> 100 µM (inactive)	> 100 µM (inactive)	> 37.3 µM (inactive)	3.76 µM (inactive)	> 100 µM (inactive)	> 100 µM (inactive)	0.625 µM (active)	4.26 µM (inactive)	> 100 µM (inactive)	> 100 µM (inactive)	> 100 µM (inactive)	> 76.6 µM (inactive)	64.6 µM (inactive)	3.9 µM (inactive)	> 38.5 µM (inactive)	> 100 µM (inactive)	–	85.3 µM (inactive)	79.1 µM (inactive)
